Laboratory results published in PubChem BioAssay AID1963435 (Molecular Pharmacology Branch, DTP, NCI, 2024).
Where “and” joins values, the source holds several entries; their conditions need not be identical. Equal values may be shown once.

Test system: PANC-1 complex spheroid growth, percent test/control
Test: Anticancer human tumor PANC-1 cell line growth inhibition [Asc];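 also: spheroids exposed to agents for 7 days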;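 as to viability, T/C: percent viability relative to DMSO vehicle wells taken as 100%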
Settings: for viability, T/C: stronger effect = lower value
In short: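 Spheroid model: tumor line + HUVEC + hMSC. Single agents and combinations; top conc. at/near clinical Cmax (10 microM if undetermined), half-log dilutions. DMSO stocks at 800-fold test concentration.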

In the case of CCN1CCN(Cc2ccc(Nc3ncc(F)c(-c4cc(F)c5nc(C)n(C(C)C)c5c4)n3)nc2)CC1, the viability, T/C (compound 0.00316 µM) is reported as 98.9% and 103% and 108%, the viability, T/C (compound 0.01 µM) is reported as 107% and 98.8% and 97.8% and the viability, T/C (compound 0.0316 µM) is reported as 111% (2×) and 121%. The viability, T/C (compound 0.1 µM) was 114% and 116% and 118%, the viability, T/C (compound 0.316 µM) was 122% and 124% and 128% and the viability, T/C (compound 1 µM) was 135% and 128% and 142%. It also gave an IC50 (curve of compound) greater than 1000 nM.

In the case of Cn1ncnc1[C@H]1c2n[nH]c(=O)c3cc(F)cc(c23)N[C@@H]1c1ccc(F)cc1 + Cc1c(S(C)(=O)=O)c(-c2cc(F)cc(N3CCN(c4ccc(NS(=O)(=O)c5ccc(NC(CCN6CCC(C(=O)OCCCP(=O)(O)O)CC6)CSc6ccccc6)c(S(=O)(=O)C(F)(F)F)c5)cc4)CC3)c2)c(-c2ccc(Cl)cc2)n1C(C)C, the IC50 (curve of first compound, second compound 0.0316 µM) is reported as greater than 100 nM, the IC50 (curve of first compound, second compound 0.1 µM) is reported as greater than 100 nM and the IC50 (curve of first compound, second compound 0.316 µM) is reported as greater than 100 nM. It also gave an IC50 (curve of first compound, second compound 1 µM) greater than 100 nM, an IC50 (curve of first compound, second compound 3.16 µM) greater than 100 nM and an IC50 (curve of first compound, second compound 10 µM) greater than 100 nM. The viability, T/C (second compound 0.0316 µM, first compound 0.000316 µM) was 101%, the viability, T/C (second compound 0.0316 µM, first compound 0.001 µM) was 88.4% and the viability, T/C (second compound 0.0316 µM, first compound 0.00316 µM) was 98.5%. It also gave a viability, T/C (second compound 0.0316 µM, first compound 0.01 µM) of 102%, a viability, T/C (second compound 0.0316 µM, first compound 0.0316 µM) of 110% and a viability, T/C (second compound 0.0316 µM, first compound 0.1 µM) of 101%. The viability, T/C (second compound 0.1 µM, first compound 0.000316 µM) was 96.7%, the viability, T/C (second compound 0.1 µM, first compound 0.001 µM) was 103% and the viability, T/C (second compound 0.1 µM, first compound 0.00316 µM) was 93.5%. For the same molecule, the viability, T/C (second compound 0.1 µM, first compound 0.01 µM) was 108%, the viability, T/C (second compound 0.1 µM, first compound 0.0316 µM) was 108% and the viability, T/C (second compound 0.1 µM, first compound 0.1 µM) was 103%. The viability, T/C (second compound 0.316 µM, first compound 0.000316 µM) was 109%, the viability, T/C (second compound 0.316 µM, first compound 0.001 µM) was 108% and the viability, T/C (second compound 0.316 µM, first compound 0.00316 µM) was 106%. For the same molecule, the viability, T/C (second compound 0.316 µM, first compound 0.01 µM) was 106%, the viability, T/C (second compound 0.316 µM, first compound 0.0316 µM) was 104% and the viability, T/C (second compound 0.316 µM, first compound 0.1 µM) was 110%. It also gave a viability, T/C (second compound 1 µM, first compound 0.000316 µM) of 105%, a viability, T/C (second compound 1 µM, first compound 0.001 µM) of 99.3% and a viability, T/C (second compound 1 µM, first compound 0.00316 µM) of 105%. The viability, T/C (second compound 1 µM, first compound 0.01 µM) was 106%, the viability, T/C (second compound 1 µM, first compound 0.0316 µM) was 103% and the viability, T/C (second compound 1 µM, first compound 0.1 µM) was 109%. The viability, T/C (second compound 3.16 µM, first compound 0.000316 µM) was 105%, the viability, T/C (second compound 3.16 µM, first compound 0.001 µM) was 102% and the viability, T/C (second compound 3.16 µM, first compound 0.00316 µM) was 107%. For the same molecule, the viability, T/C (second compound 3.16 µM, first compound 0.01 µM) was 114%, the viability, T/C (second compound 3.16 µM, first compound 0.0316 µM) was 112% and the viability, T/C (second compound 3.16 µM, first compound 0.1 µM) was 93.5%. For the same molecule, the viability, T/C (second compound 10 µM, first compound 0.000316 µM) was 160%, the viability, T/C (second compound 10 µM, first compound 0.001 µM) was 176% and the viability, T/C (second compound 10 µM, first compound 0.00316 µM) was 147%. It also gave a viability, T/C (second compound 10 µM, first compound 0.01 µM) of 167%, a viability, T/C (second compound 10 µM, first compound 0.0316 µM) of 169% and a viability, T/C (second compound 10 µM, first compound 0.1 µM) of 139%.
